# Measured values reported in patent publication US8778688B2, “High-throughput methods for determining pharmacological levels of plasma D-serine” (The Johns Hopkins University, priority 2011, dated 2014).
# How the values were obtained:
# [1] = tested on: prepulse inhibition deficits; settings: co-administration with D-serine, ddy mice; similar to 10-fold higher doses of D-serine alone; cited from earlier work
# DAAO [2] = molecular target: T1, DAAO (Rattus norvegicus, UniProt O35078); settings: oral co-administration with D-serine, rats; cited from earlier work
# T1 construct: host or cells: living rats (whole animal)
# porcine DAAO = molecular target: T2, porcine DAAO (Sus scrofa, UniProt P00371); experiment: DAAO enzyme coupled assay (Amplex Red/HRP, resorufin fluorescence); type: biochemical; settings: control experiment, CBIO not removed by SPE; data not shown
# T2 construct: purchased Sigma
# Procedure: (§1) D-serine Measurement—An aliquot (50 μL) of the D-serine eluant from the cation exchange SPE was used as the source of D-serine in the DAAO catalyzed reaction. The DAAO assay is an enzyme coupled assay that was adapted from a procedure that has been reported previously (P. E. Brandish, et al. J Biomol Screen 11 (2006) 481-87). Briefly, the reaction is carried out in Tris buffer (pH 8.5, 100 mM) in the presence of flavin adenine dinucleotide (10 μM). The peroxide formed from the oxidation of D-serine in the presence of porcine DAAO (34 units/mg, Sigma) was made to react with horse radish peroxidase (0.01 mg/ml, Sigma) in the presence of Amplex Red (50 μM, Invitrogen) to make resorufin. Fluorescence of resorufin (ex/em 530/590) was monitored in a SpectraMax Gemini XS fluorimeter for 1 h at 5 min intervals. D-serine concentrations were determined by interpolation from the standard curve of fluorescence vs. D-serine concentration.
# The eluant containing D-serine was then used as substrate in the DAAO catalyzed reaction. […] The levels of several D-amino acids in mouse serum have been reported previously and they range from not detectable to 6 μM (A. Hashimoto, et al. Neurosci Lett 152 (1993) 33-36); these concentrations would give a low fluorescence background. […] In any case, background fluorescence was determined from control animals every time an experiment was carried out. […]
# DAAO [3] = molecular target: T3, DAAO (Mus musculus, UniProt P18894); experiment: Plasma D-serine after oral administration of D-serine ± DAAO inhibitors, determined by SPE/DAAO; type: in vivo; settings: CD1 mice; for plasma D-serine curve / exposure to D-serine on co-administration: D-serine 326 μmole/kg po plus inhibitor po (CBIO 180, TPC 160 μmoles/kg)
# T3 construct: CD1 mice (6-8 wk old, Sprague Dawley, Harlan) were dosed orally with D-serine (30 mg/kg)±compounds; from tissue; host or cells: living CD1 mice (whole animal; DAAO of liver, kidney, brain)
# Procedure: Plasma was collected at 0.5, 1, 2, 3, and 6 hours after dosage. D-serine was extracted from plasma by SPE and its levels determined by the DAAO reaction. FIG. 2(A) depicts D-serine alone, FIG. 2(B) depicts CBIO alone, D-serine±CBIO and FIG. 2(C) depicts D-serine±TPC. […] Each data point is the average of data from 3 separate mice; error bars correspond to ±S.E.M. D-serine standard curves were constructed for each experiment.
# Animals—CD1 mice (6-8 wk old, Sprague Dawley, Harlan) were dosed orally with D-serine (30 mg/kg)±compounds. Animals were sacrificed 0.5, 1, 2, 3 and 6 h after dosing and blood was collected by cardiac puncture bleeds. Plasma was prepared and frozen at −80° C. until use.
# (§2) Cation Exchange SPE—D-serine was added to normal mouse plasma at different concentrations to generate a standard curve. Plasma (50 μL) containing D-serine or plasma from D-serine treated animals was diluted in 200 μL 0.03 N HCl (pH 1.5). […] Acidified samples were then added to a cation exchange resin (BioRad AG 50W-X4, 200 μL resin equilibrated with 0.03 N HCl) in deep well spin plates (Harvard Apparatus). Minicolumns were centrifuged for 2 min at 200×g. The resin was washed twice with 250 μL 0.03 N HCl and 3 times with 250 μL 100 mM Tris, pH 8.5. D-serine was eluted with 2 times 250 μL 100 mM Tris, pH 13.
# as §1, with “The DAAO assay is an enzyme coupled assay that was adapted from a procedure that has been reported previously (P. E. Brandish, et al. J Biomol Screen 11 (2006) 481-87).” left out, “concentration. […]” for “concentration.”
# [4] = cited from earlier work
# [5] = Plasma D-serine time profile after oral D-serine, determined by SPE/DAAO; type: in vivo, CD1 mice; settings: D-serine 326 μmoles/kg po
# Procedure: […] Animals were sacrificed 0.5, 1, 2, 3 and 6 h after dosing and blood was collected by cardiac puncture bleeds. Plasma was prepared and frozen at −80° C. until use.
# as §2
# D-serine Measurement—An aliquot (50 μL) of the D-serine eluant from the cation exchange SPE was used as the source of D-serine in the DAAO catalyzed reaction. The DAAO assay is an enzyme coupled assay that was adapted from a procedure that has been reported previously (P. E. Brandish, et al. J Biomol Screen 11 (2006) 481-87). […] Fluorescence of resorufin (ex/em 530/590) was monitored in a SpectraMax Gemini XS fluorimeter for 1 h at 5 min intervals. D-serine concentrations were determined by interpolation from the standard curve of fluorescence vs. D-serine concentration. […]
# [6] = tested on: N-methyl-D-aspartate (NMDA) receptor; settings: multiple clinical studies; high doses (2 g per day po); cited from earlier work
# T3 sequence (P18894 whole entry): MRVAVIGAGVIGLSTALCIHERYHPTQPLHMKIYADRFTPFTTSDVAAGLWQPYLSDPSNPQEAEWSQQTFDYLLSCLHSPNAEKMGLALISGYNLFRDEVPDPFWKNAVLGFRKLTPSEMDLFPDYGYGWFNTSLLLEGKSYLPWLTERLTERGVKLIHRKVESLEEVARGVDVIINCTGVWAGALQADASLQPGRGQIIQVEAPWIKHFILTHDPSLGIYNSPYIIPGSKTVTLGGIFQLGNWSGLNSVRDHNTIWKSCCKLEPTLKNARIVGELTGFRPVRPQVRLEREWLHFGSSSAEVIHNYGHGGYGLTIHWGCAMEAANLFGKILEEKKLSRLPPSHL
# T1 sequence (O35078 whole entry): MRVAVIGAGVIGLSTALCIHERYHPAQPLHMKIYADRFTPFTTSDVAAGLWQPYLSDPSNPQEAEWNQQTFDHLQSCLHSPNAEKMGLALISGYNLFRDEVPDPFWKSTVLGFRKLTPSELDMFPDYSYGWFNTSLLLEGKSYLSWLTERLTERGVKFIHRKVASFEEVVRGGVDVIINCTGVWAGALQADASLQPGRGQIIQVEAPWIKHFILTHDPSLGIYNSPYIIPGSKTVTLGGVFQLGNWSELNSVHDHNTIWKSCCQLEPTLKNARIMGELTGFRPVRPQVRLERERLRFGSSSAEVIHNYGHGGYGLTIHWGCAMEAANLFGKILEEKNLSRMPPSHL
# T2 sequence (P00371 whole entry): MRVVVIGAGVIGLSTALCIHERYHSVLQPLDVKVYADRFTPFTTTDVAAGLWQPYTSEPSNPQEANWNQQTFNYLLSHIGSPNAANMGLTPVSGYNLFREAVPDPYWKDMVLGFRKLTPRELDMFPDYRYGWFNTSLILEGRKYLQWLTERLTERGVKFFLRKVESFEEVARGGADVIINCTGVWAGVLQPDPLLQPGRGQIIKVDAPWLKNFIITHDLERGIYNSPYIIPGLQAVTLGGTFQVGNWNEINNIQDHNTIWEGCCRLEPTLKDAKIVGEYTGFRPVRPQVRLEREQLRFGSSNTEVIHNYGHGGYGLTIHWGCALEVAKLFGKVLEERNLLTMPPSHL
SMILES,prepulse inhibition deficits [1],brain levels of D-serine compared to D-serine alone (DAAO [2]),plasma levels of D-serine compared to D-serine alone (DAAO [2]),oxidation of D-serine by DAAO (porcine DAAO),plasma D-serine levels when inhibitor administered in the absence of D-serine (DAAO [3]; CBIO alone),plasma D-serine curve / exposure to D-serine on co-administration (DAAO [3]),pKa of the carboxylic acid [4],"time point showing the highest D-serine plasma concentration ([5]; first time point, Tmax likely earlier)","half-life ([5]; mouse, CD1 mice, plasma, read-out: estimated half-life of D-serine in mouse plasma)","treating the positive, negative and cognitive deficits of schizophrenia [6]"
"Oc1noc2ccc(Cl)cc12 [CBIO, 5-chloro-benzo[d]isoxazol-3-ol]",normalized,significantly enhanced,significantly enhanced,completely inhibited,the same as background levels,overall curve was shifted to the right,,,,
N[C@H](CO)C(=O)O [D-serine],,,,,,,2.1,0.5 h,~50 min,effective
"O=C(O)c1cc2sccc2[nH]1 [TPC, 4H-thieno[3,2-b]pyrrole-5-carboxylic acid]",,,,,,shifted the exposure of D-serine in plasma,,,,
